The subject of one series is MCF7 (breast carcinoma). Description: SRB cytotoxicity assay, MCF7. The format is cell-based, human. To be noted: 72 h treatment, mean n = 3, SD 5-10%. The source says: (§1) All compounds were screened for their cytotoxic activity and tumor cell selectivity using our standard model, previously described, comprising a selection of human tumor cell lines representing different solid tumor entities and non-malignant human fibroblasts (CCD18Co) including the cell line pair A2780/A2780cis, a well-known model of acquired drug resistance.
(§2) Reagents were bought from commercial suppliers and used without further purification. The solvents were dried according to the usual procedures. TLC was performed on silica gel (Macherey-Nagel, detection with UV absorption; Macherey-Nagel, Düren, Germany). […] Numbering in the NMR spectra: 1–20 (diterpene core), 21–24 for O-(CH2)n-N fragment followed by the pyridinium ring, the ethenyl moiety and the indole moiety. […] IR spectra were recorded on a Perkin-Elmer Spectrum Two (UATR Two Unit, Perkin-Elmer GmbH, Rodgau, Germany). […] Both media were supplemented with 10% fetal bovine serum (Biowest, Nuaillé, France) and 1% penicillin-streptomycin (Sigma-Aldrich).
(§3) Cytotoxic activities of compounds were analyzed using the SRB cytotoxicity assay. Cells were seeded in 96-well plates and after 24 h were treated with serial dilutions of compounds for 72 h. All subsequent steps were performed according to the previously described SRB assay protocol. Dose–response curves and calculation of IC50 values, including standard deviations, were carried out using GraphPad Prism8.
(In general: Sulforhodamine B stains cellular protein and so reports cell mass.)

Series [1] has as its system A2780cis (resistant derivative of A2780). The series is described as follows: SRB cytotoxicity assay, A2780cis. The format is cell-based, human. To be noted: for IC50: SRB assay, 72 h treatment, mean n = 3, SD 5-10%; for resistance index (RI): quotient IC50 values A2780cis/A2780.
Excerpt: as §1, §2, §3

In series [2] the test system is HT29 (colorectal carcinoma). Description: SRB cytotoxicity assay, HT29. To be noted: 72 h treatment, mean n = 3, SD 5-10%. Type of series: cell-based, human.
Excerpt: as §1, §2, §3

The subject of another series is A549 (lung carcinoma). The series is described as follows: SRB cytotoxicity assay, A549. The format is cell-based, human. To be noted: for selectivity index 2 (SI 2): CCD18Co/A549; for IC50: SRB assay, 72 h treatment, mean n = 3, SD 5-10%.
Excerpt: as §1, §2, §3

Series [3] deals with CCD18Co (non-malignant human fibroblasts). The series is described as follows: SRB cytotoxicity assay, CCD18Co. Type of series: cell-based. To be noted: 72 h treatment, mean n = 3, SD 5-10%.
Excerpt: as §1, §2, §3

The test system of series [4] is A2780 (ovarian carcinoma). Description: SRB cytotoxicity assay, A2780. Type of series: cell-based, human. To be noted: for selectivity index 1 (SI 1): CCD18Co/A2780; for IC50: SRB assay, 72 h treatment, mean n = 3, SD 5-10%.
Excerpt: as §1, §2, §3

Consider 7 molecules from paper PMC10821019, “F16 Hybrids Derived from Steviol or Isosteviol Are Accumulated in the Mitochondria of Tumor Cells and Overcome Drug Resistance” (Molecules, 2024).

On to `CC12CCC3C(CCC4C(C)(C(=O)OCCCCBr)CCCC34C)(CC1=O)C2` (stereo not drawn) [Compound 23, 4-Bromobutyl (4α, 8β, 13β) 13-Methyl-16-oxo-17-norkauran-18-oate], for which the IC50 worked out at 18.4 µM in the series with MCF7 (breast carcinoma); 29.1 µM in series [1]; 24.6 µM in series [2]; 34.3 µM in the series on A549 (lung carcinoma); 31.3 µM in series [3]; 13 µM in series [4]. In addition, in series [1], the “resistance index (RI)” value was determined as 2.23. Also, the “selectivity index 2 (SI 2)” value in the series with A549 (lung carcinoma) is recorded as 0.91. In addition, in series [4], the “selectivity index 1 (SI 1)” value is recorded as 2.40.

Take `CC12CCC3C(CCC4C(C)(C(=O)OCCCC[n+]5cccc(C=Cc6c[nH]c7ccccc67)c5)CCCC34C)(CC1=O)C2.[Br-]` (stereo not drawn) [Compound 27, 4-{3-[(E)-2-(1H-Indol-3-yl)ethenyl]-pyridinium-1-yl}butyl (4α, 8β, 13β) 13-Methyl-16-oxo-17-norkauran-18-oate Bromide]: the IC50 with MCF7 (breast carcinoma) was 1.57 µM; in series [1], 1.27 µM; in series [2] it was 2.2 µM; with A549 (lung carcinoma), 6.28 µM; in series [3], 10.8 µM; in series [4], 0.76 µM. The “resistance index (RI)” value in series [1] amounted to 1.67. For the same molecule, the “selectivity index 2 (SI 2)” value with A549 (lung carcinoma) is listed as 1.72. Besides, in series [4], the “selectivity index 1 (SI 1)” value is recorded as 14.18.

As for `C=C1C[C@@]23CC[C@H]4[C@@](C)(CCC[C@@]4(C)C(=O)OCC[n+]4ccc(/C=C/c5c[nH]c6ccccc56)cc4)[C@@H]2CC[C@]1(O)C3.[Br-]` [Compound 8, 2-{4-[(E)-2-(1H-Indol-3-yl)ethenyl]-pyridinium-1-yl}-ethyl (4α)-13-Hydroxykaur-16-en-18-oate Bromide], the IC50 in the series on MCF7 (breast carcinoma) is 1.81 µM; in series [1], 1.86 µM; in series [2] it was 1.81 µM; in the series on A549 (lung carcinoma) it was 8.82 µM; in series [3], 11.8 µM; in series [4], 2.01 µM. The “resistance index (RI)” value in series [1] came to 0.92. The “selectivity index 2 (SI 2)” value with A549 (lung carcinoma) is on record as 1.34. The “selectivity index 1 (SI 1)” value in series [4] came out at 5.87.

`C=C1C[C@@]23CC[C@H]4[C@@](C)(CCC[C@@]4(C)C(=O)OCCC[n+]4ccc(/C=C/c5c[nH]c6ccccc56)cc4)[C@@H]2CC[C@]1(O)C3.[Br-]` [Compound 16, 3-{4-[(E)-2-(1H-Indol-3-yl)ethenyl]-pyridinium-1-yl}-propyl (4α)-13-Hydroxykaur-16-en-18-oate Bromide]: the IC50 was 0.72 µM in the series with MCF7 (breast carcinoma); 0.45 µM in series [1]; 0.98 µM in series [2]; 3 µM in the series with A549 (lung carcinoma); 8.33 µM in series [3]; 0.32 µM in series [4]. Besides, in series [1], the “resistance index (RI)” value is on record as 1.41. Further, the “selectivity index 2 (SI 2)” value in the series on A549 (lung carcinoma) is 2.77. Further, the “selectivity index 1 (SI 1)” value in series [4] amounted to 26.27.

For `C=C1C[C@@]23CC[C@H]4[C@@](C)(CCC[C@@]4(C)C(=O)OCCBr)[C@@H]2CC[C@]1(O)C3` [Compound 6, 2-Bromoethyl (4α)-13-Hydroxykaur-16-en-18-oate], the IC50 in the series with MCF7 (breast carcinoma) was 29.4 µM; in series [1], 28.1 µM; in series [2], 30.6 µM; in the series on A549 (lung carcinoma) it was 83.4 µM; in series [3], 42.2 µM; in series [4], 24.8 µM. Besides, the “resistance index (RI)” value in series [1] is on record as 1.13. The “selectivity index 2 (SI 2)” value in the series with A549 (lung carcinoma) was 0.51. Besides, the “selectivity index 1 (SI 1)” value in series [4] is on record as 1.70.

`C=C1C[C@@]23CC[C@H]4[C@@](C)(CCC[C@@]4(C)C(=O)OCC[n+]4cccc(/C=C/c5c[nH]c6ccccc56)c4)[C@@H]2CC[C@]1(O)C3` [Compound 10, 2-{3-[(E)-2-(1H-Indol-3-yl)ethenyl]-pyridinium-1-yl}-ethyl (4α)-13-Hydroxykaur-16-en-18-oate Bromide]: the IC50 was found to be 3.83 µM in the series with MCF7 (breast carcinoma); 4.2 µM in series [1]; 7.65 µM in series [2]; 22.7 µM in series [3]; 2.8 µM in series [4].

Consider “4-Bromobutyl (4α) -13-Hydroxykaur-16-en-18-oate Bromide [Compound 22]”, for which, in series [1], the “resistance index (RI)” value is 1.14. Also, the “selectivity index 2 (SI 2)” value with A549 (lung carcinoma) was determined as 1.68. For the same molecule, the “selectivity index 1 (SI 1)” value in series [4] was determined as 3.58.

As usually defined, the IC50 is the concentration needed to halve the response being measured. A low value points to greater potency.
